# Results taken from patent publication US20130039928A1, “COMPOSITIONS AND METHODS FOR REVERSING CORTICOSTEROID RESISTANCE OR TREATING RESPIRATORY INFECTIONS” (priority 2010, published 2013).
# “Also recorded” adds a separate entry of the source.
# How the values were obtained:
# glucocorticoid receptor = test: Acetylated glucocorticoid receptor levels in alveolar macrophages; format: cell-based, human; conditions: compared to vehicle control
# Procedure: (§1) All immunoblots were performed by using protocols as described previously (Barnes, P. J., N Engl J Med 343, 269-280 (2000)). Rabbit anti-HDAC2 antibody from Santa Cruz Biotechnology (Santa Cruz, Calif.) was used at 1:500 dilutions. Rabbit anti-5-nitroso-cysteine antibody from Alpha diagnostics was used at 1:500 dilutions. Rabbit anti-nitro-tyrosine antibody from Cell Signaling Technology, was used at 1:250 dilution. Rabbit anti-ubiquitin antibody from Santa Cruz Biotechnology (Santa Cruz, Calif.) was used at 1:1000 dilutions. Rabbit anti-GR antibody from Santa Cruz Biotechnology (Santa Cruz, Calif.) was used at a dilution of 1:1000. Rabbit anti-MMP9 antibody from Sigma Aldrich was used at 1:500 dilutions. Rabbit anti-acetyl-lysine antibody from Abcam was used at 1:750 dilutions. Rabbit anti-lamin-B1 from Santa Cruz Biotechnology (Santa Cruz, Calif.) was used at 1:1000 dilutions as a loading control. The Image J program was used for densitometry analyses.
# HDAC2 [1] = tested on: HDAC2
# Procedure: Whether sulforaphane increase HDAC2 activity in lungs of cigarette smoke exposed mice was determined.
# (§2) Mice (C57BL/6 strain, 8-10 weeks old) were used for the studies. Exposure to CS (1 month) was carried out as described previously (Malhotra, D., et al., Am J Respir Crit Care Med 178, 592-604 (2008)). Residential peritoneal macrophages (PMs) isolation was carried out as described previously (Singh, A., et al., PLoS Med 3, e420 (2006)). Alveolar macrophages from mouse were isolated from bronchoalveolar lavage (BAL) fluid (Crimi, E., et al., Free Radic Biol Med 40, 398-406 (2006)).
# HDAC activity was measured using a fluorescent derivative of ε-acetyl-lysine from Enzo life sciences (Farmingdale, N.Y.) according to the manufacturer's recommendations. HDAC2 was immunoprecipitated for analysis of enzymatic activity.
# Pseudomonas aeruginosa = conditions: THP-1 macrophages, 10 μM for 24 hours
# Procedure: To determine intracellular killing, macrophages were treated with vehicle (DMSO) or sulforaphane (10 μM) for 24 hours. Cells were then washed and the medium was replaced with serum-free medium. After the medium replacement, approximately 10^5 CFUs of PA were added to each well. After 1 h, the medium was removed and cells were washed, and the gentamicin-containing medium was added to kill bound, unphagocytosed bacteria. Cells were lysed at the indicated time points, and lysates were plated to determine viable intracellular bacteria.
# HDAC2 [2] = format: cell-based, human; conditions: COPD alveolar macrophages
# Procedure: (§3) For inducing corticosteroid resistance, PMs were exposed to cigarette smoke condensate (CSC, 100 μg/ml; Murty Pharmaceuticals, Lexington, Ky.) for 16 h. Exposure to S-nitrosoglutathione (GSNO, 10 μM) was limited to 4 h. […] For assessing corticosteroid responsiveness, macrophages were incubated with dexamethasone (1 μM, Sigma) for 1 h followed by LPS (100 ng/ml, Sigma) for additional 4 h.
# as §1
# (§4) Total RNA was extracted from the cells by lysis and specific binding to a silica membrance (Qiagen RNeasy kit, Qiagen, Valencia, Calif.), and qRT-PCR was performed by using primers and probe sets for human IL-8, NQO1, GCLM, and iNOS (Assay-on-Demand, Applied Biosystems, Foster City, Calif.). A real-time fluorescent PCR system (ABI 7000 Taqman system, Applied Biosystems) was used to perform these assays. β-actin was used as the normalization control.
# [3] = tested on: nontypeable Haemophilus influenzae; conditions: COPD alveolar macrophages, compared to vehicle
# Procedure: Human alveolar macrophages were purified from individual BAL samples by centrifugation and seeded onto 6-well tissue culture plates. After incubation for 2 h, non-adherent cells were removed and the adherent cells were incubated with R, S-sulforaphane (5 μM; LKT Laboratories, Inc., St. Paul, Minn.) and or DMSO in RPMI 1640 culture medium with 10% FBS and 1% penicillin-streptomycin (Invitrogen, Carlsbad, Calif.). After 16-20 h, adherent cells were scraped, suspended in RPMI 1640 culture media and plated onto 96-well tissue culture plates for bacterial phagocytosis and clearance assays. […] For MARCO antibody-depletion, alveolar macrophages were incubated with human anti-MARCO antibody (1 μg/ml; (Hycult, Uden, The Netherlands) for 4 hours prior to bacterial challenge.
# Sputum isolates of nontypeable H. influenzae and P. aeruginosa obtained from patients with COPD at the Department of Veterans Affairs, Western New York Healthcare System were used (S. Sethi, N. Evans, B. J. Grant, T. F. Murphy, N Engl J Med 347, 465 (Aug. 15, 2002); C. S. Berenson, M. A. Garlipp, L. J. Grove, J. Maloney, S. Sethi, J Infect Dis 194, 1375 (Nov. 15, 2006); T. F. Murphy et al., Am J Respir Crit Care Med 177, 853 (Apr. 15, 2008); T. F. Murphy, A. L. Brauer, A. T. Schiffmacher, S. Sethi, Am J Respir Crit Care Med 170, 266 (Aug. 1, 2004)). […]
# Bacterial phagocytosis was quantified using a flow cytometry analysis.
# [4] = tested on: CD80/86, MHC-11, CD14 and CD206; conditions: FACS
# Procedure: To examine the contribution of MARCO in mediating bacterial phagocytosis by alveolar macrophages following sulforaphane treatment, an antibody-depletion approach was employed. The specificity of anti-MARCO antibody was validated by immunoblot analysis (FIG. 12). […] To assess the effect of sulforaphane on the phenotype of macrophages, CD80/86, MHC-11, CD14 and CD206 were analyzed by FACS.
# IL-8 gene = conditions: sulforaphane treatment with DEX
# Procedure: as §3, §4
# HDAC2 [5] = conditions: CSC-exposed PMs
# Procedure: as §2, §3
smiles,measurement,setting,value
C[S+]([O-])CCCCN=C=S (stereo not shown) [sulforaphane],secretory levels of active MMP9,MMP9,significantly reduced
same,levels of S-nitrosylated MMP9,MMP9; biotin-switch assay,significantly reduced
same,levels of acetylated-glucocorticoid receptor,glucocorticoid receptor,significant decrease in the levels of acetylated-glucocorticoid receptor
same,levels of SNO-HDAC2 in lungs,HDAC2 [1]; CS-exposed mice,reduced the levels of SNO-HDAC2
same,GSH levels in lungs,HDAC2 [1]; cigarette smoke-exposed mice,increased GSH levels
same,HDAC2 enzymatic activity in lungs,HDAC2 [1]; cigarette smoke-exposed mice,significant increase
same,HDAC2 protein in lungs,HDAC2 [1]; cigarette smoke-exposed mice,significant increase
same,total HDAC enzymatic activity in lungs,HDAC2 [1]; cigarette smoke-exposed mice,significant increase
same,kinetics of intracellular killing,Pseudomonas aeruginosa,moderate increase in the kinetics of intracellular killing
same,HDAC2 mRNA levels,HDAC2 [2],without altering the levels of HDAC2 mRNA; also recorded: no effect on HDAC2 mRNA expression
same,HDAC2 protein levels,HDAC2 [2],up-regulated HDAC2 protein levels
same,phagocytosis of FITC-labeled nontypeable Haemophilus influenzae,[3],significantly enhanced phagocytosis
same,"expression of other markers (MHC-11, CD14)",[4],no significant difference
same,expression of receptors CD80/86 and CD206,[4],Moderate suppression
same,expression of the IL-8 gene,IL-8 gene,concomitant reduction
same,levels of SNO-HDAC2,HDAC2 [5],significant reduction in the levels of SNO-HDAC2
